Results taken from a melting point compilation (Tetko et al.; mined from patent text by program, amines drawn as free bases though some values may be those of a salt).
Counter-ions that a name gives are not always drawn. Residues, ends and D or L forms follow the SMILES beside them. *: point of attachment. Tfa = O=C(C(F)(F)F)*

SMILES	melting point
CCCOC1(C=CCCCCC(=O)O)C=CC=CC1 (configuration not stated)	52 to 53 °C
O=C(O)CNC(=O)CNC(=O)C(F)(F)F (Tfa-Gly-Gly-OH)	185 °C
O=C(Nc1cccc2c1C(=O)c1c-2n[nH]c1-c1ccc(N2CCNCC2)cc1)NN1CCN(CCO)CC1	279 °C
COc1ccc(C(C)=C2SCCCS2)cc1C(=O)O	130 to 132 °C
CCN(CC)CCNC(=O)N1CCCC(S(=O)(=O)c2ccc(OCCOC)cc2)C1 (configuration not stated)	98 to 99 °C
CCC(=O)OCOC(=O)C1=C(C)N(COC)C(C)=C(C(=O)OCOC(=O)CC)C1c1cccc([N+](=O)[O-])c1	86 to 87 °C
Cc1cccc(CC(N)(CF)C(=O)O)c1O (configuration not stated)	168 °C
CC(=O)N[C@@H](C)COC1CCN(c2nc3cc(OCC4CC4)ccc3o2)CC1	99 to 100 °C
CCOC(C)=C1SC(=S)N(c2ccc(Cl)cc2)C1=O	168 to 171 °C
CCOC(=O)C1(c2ccccc2)CCN(C/C=C/C(C#N)(c2ccccc2)c2ccccc2)CC1	100 to 102 °C
CC1(C)CN=C(c2cc3cccc(NS(=O)(=O)c4cccs4)c3[nH]2)S1	176 to 177 °C
Cc1cc(Oc2[nH]c(=O)[nH]c(=O)c2C(C)C)cc(C2OCCO2)c1	201 to 203 °C
NN1CCN(Cc2c[nH]c3ccccc23)CC1	147 to 149 °C
CN(C)Cc1nnc(CO)n1-c1ccc(Cl)cc1C(=O)c1ccccc1Cl	138 to 141 °C
CC(C)(C)OC(=O)OCC(COC(=O)OC(C)(C)C)OCn1cnc2c(=O)[nH]c(N)nc21	192 to 193 °C
Cc1cc(N(C)C)ccc1C=Nc1cc(Cl)c(N=CN(C)C)c(Cl)c1	64 to 65 °C
N#Cc1cccc(C(=O)Cc2ccnnc2)c1	142 to 144 °C
CCCCCCCCCCOC(=O)c1ccc(O)c(OC)c1	40 to 40.5 °C
CC(C)(C)C(=O)Nc1nc(O)c2c(C#C[Si](C)(C)C)c[nH]c2n1	> 300 °C
CCOC(=O)c1cn(-c2ccncc2F)c2nc(Cl)c(F)cc2c1=O	226 °C
NCc1nc(-c2ncn3c2[C@@H]2CCN2C(=O)c2cc(F)ccc2-3)no1	195 to 198 °C
CC(Oc1ccc2nc(NC(=O)CCCN3CCOCC3)sc2c1)c1c(Cl)ccc(F)c1Cl (configuration not stated)	141 to 145 °C

SMILES	melting point
CCN(CC)C(=O)n1cc(C=O)c(S(=O)(=O)c2cccc(Cl)c2C)n1	95 to 97 °C
C[C@@H](O)c1nccc(N2CCC(=Cc3cccc(Cl)c3)CC2)n1	45 to 55 °C
CCOC(=O)Cc1c(C)[nH]c2cc(F)c(OC)c(F)c12	92.1 to 92.7 °C
O=C1c2cc(F)ccc2S(=O)(=O)c2cc(C3=NCCN3)ccc21	248 to 249 °C
O=CNNc1ccccc1	138 to 143 °C
CS(=O)(=O)N1CCN([C@](O)(CNC(=O)c2ccc(OCC#CCO)cc2)C(N)=O)CC1	162 °C
Cc1cc(Cl)cc(NC(=O)C=NO)c1	206 to 207 °C
Cc1cc(C)c2c(c1)C(=O)CC21CNC(=O)C1 (configuration not stated)	208 to 210 °C
CC(C)(C#N)c1c(Cl)cc(-n2ncc(=O)[nH]c2=O)cc1Cl	180 °C
CC(C)(C)C(=O)Oc1ccc(-c2nnn(CCO)n2)cc1	92 to 95 °C
O=C(c1ccc(Cl)cc1)c1cccc(Br)n1	83.5 to 84 °C
Fc1cc(-n2cc(CN=C=S)nn2)cc(F)c1N1CCOCC1	135 °C
c1ccc2c(-c3cnc(CCC4CCCCN4)s3)c[nH]c2c1 (configuration not stated)	155 to 157 °C
CCCCCNC(=O)n1nc(Oc2ncc(C(F)(F)F)cc2Cl)c(Cl)c1C	76 to 78 °C
Nc1ncnc2c1ncn2Cc1nc2ccc(Cl)cc2c(=O)n1-c1ccccc1Cl	294 to 295 °C
O=C1NC(=O)C(=Cc2cc(O)c(O)c(Cl)c2)S1	299 to 301 °C
CC(C)(C)OC(=O)N1CC(CC(=O)O)c2ccccc21 (single isomer, unassigned; (+))	137 to 138 °C
Cn1c(CC(=O)O)ccc1C(=O)c1ccc(C#N)cc1	196 to 198 °C
C[C@@H](Cn1ncc2ccc3c(c21)O[C@@H](CN=[N+]=[N-])CO3)NC(=O)OC(C)(C)C	134 to 135 °C
CC(C)CC(=O)Nc1c(C(=O)c2cc(CO)co2)[nH]c2cc(Cl)ccc12	200 to 201 °C
CCCCOC(=O)c1ccc(C(F)(F)F)cc1Cl	90 °C

Continued, values first:

melting point	SMILES
119 to 120 °C	COc1cc(COc2cc(C=O)n(-c3ccccc3)n2)ccc1OCc1nc(-c2ccccc2)oc1C
92 to 94 °C	CCCCc1oc2ccccc2c1C(=O)c1cc(Br)c(OCC(=O)O)c(Br)c1
219 to 221 °C	CN1C(=O)C2(COc3cc4c(cc32)OCCO4)c2c(Oc3ccccn3)cccc21 (configuration not stated)
166 to 167 °C	N#CC(Sc1nc2ccccc2[nH]1)c1ccccn1 (configuration not stated)
232 to 234 °C	Cc1cc(Br)cnc1CCCCNc1ncc(Cc2ccc(O)cc2)c(=O)[nH]1
93 °C	Cc1cccc(-c2nc3ccc(OCCN(C)C)cc3n2Cc2ccccc2C(F)(F)F)c1
212 °C	Cn1nc(-c2cnc(N)nc2-c2cccc(F)c2)ccc1=O
106 to 107 °C	CC(C)C[C@H](NC(=O)OCc1ccccc1)C(=O)N[C@@H](Cc1cccs1)C(=O)CSCc1ccco1
65 to 66 °C	CCOC(=O)NCCc1cc2ccccc2s1
59 to 62 °C	CC(C)(C)c1ccc(/C=C/C(=O)OCc2ccccc2)cc1
68 to 73 °C	O=C[C@H](OCc1ccccc1)[C@@H](OCc1ccccc1)[C@@H](O)COCc1ccccc1
96 °C	O=C(Nc1ccc2c(c1)CC(NS(=O)(=O)c1ccccc1)C2)c1ccccc1-c1ccc(C(F)(F)F)cc1 (configuration not stated)
40 °C	O=C(C=Cc1ccccc1O)OCCc1ccccc1
217 °C	COc1ccc(-c2cc3ccccc3[nH]2)cc1O
91 to 93 °C	COC(=O)c1ccc(SCc2cccc(C(F)(F)F)c2)c(C)n1
178 to 183 °C	Cc1cc(F)ccc1-c1cc(NCCNC(=O)NC2CCCCC2)nc2c1C=NC(=O)C2c1c(F)cccc1F (configuration not stated)
129 to 132 °C	O=C1N(N2CCCCC2)c2ccccc2C1(Cc1ccnc(F)c1)c1ccccc1 (configuration not stated)
133 to 135 °C	O=C(C=Cc1ccccc1Cl)Nc1cc(Cl)cc(Nc2noc3ccccc23)c1
248 to 250 °C	CCCOc1ccc(S(=O)(=O)N2CCN(CC)CC2)cc1-c1nc2cc(N)c([N+](=O)[O-])cc2c(=O)[nH]1
232 to 236 °C	O=C1COc2cc(NC(=O)C(=O)N3CCC(OCc4ccccc4)CC3)ccc2N1
> 230 °C	CCOC(=O)c1cc(-c2csc(-c3ccnc(N(C)C)c3)n2)c(=O)[nH]c1C(C)C
120 to 123 °C	COc1cc(C=O)c(OC)c2ccccc12
265 to 268 °C	Cc1nc(-c2sc(-c3ccc(Cl)cc3)nc2C)sc1C(=O)O
150 to 151 °C	CCC1C2C(C(=O)N1Cc1ccc3c(c1)OCO3)C(c1ccc(C#N)cc1)N1CCCC21 (configuration not stated)
174 to 176 °C	O=C(Oc1ccc(Cl)cn1)c1cc2ccccc2sc1=O
252 to 254 °C	O=C1Cc2c(cc3ccccc3c2Cl)C(c2ccccc2Cl)N1 (configuration not stated)
178 to 180 °C	Cc1ccc(-c2cccc(/C=C/C(=O)Nc3ccc(CCl)cc3)c2)cc1

melting point	SMILES
116 to 119 °C	COc1ccc(C=Cc2nc3c(OC)c(C)c(C)c(OC)c3[nH]2)cc1OC
125 °C	CCC(C(=O)c1ccc(Cl)cc1)n1ncn(-c2ccc(N3CCN(C(C)=O)CC3)cc2)c1=O (configuration not stated)
159 to 161 °C	O=C(Nc1ccc(Oc2ccccc2)cc1)N1CCN(c2ccnc3cc(Cl)ccc23)CC1
155 to 156 °C	Cc1ncc2c(n1)-c1ccc(Cl)cc1C(c1ccccc1Cl)N(C)C2 (configuration not stated)
47 to 48.5 °C	CCC[C@](CC=O)(CCc1ccccc1)OCOc1ccc(-c2ccccc2)cc1
85 °C	C=CCOc1ccc(C(=O)Oc2ccc3ccc(OC(=O)C(=C)C)cc3c2)cc1
156 to 157 °C	CCCN(CCC)C(=O)Cn1c(=O)n(C)c2cnc(-c3ccccc3)nc21
223 to 224 °C	Cn1nc(-c2ccccc2)cc1C(=O)Nc1ccc(OCC(C)(C)C)c(C#N)c1
175 to 178 °C	COc1ccc(NC(=O)c2ccc(-c3ccc(-c4noc(CO)n4)cc3C)cc2)cc1N1CCN(C)CC1
195 to 197 °C	CCS(=O)(=O)c1ccc(-c2nc(-c3nc4cc(OC)cc(OC)c4c(=O)[nH]3)ccc2OCCNC(C)C)cc1
110 to 111 °C	CCCCOCCOc1ccc(-c2ccc(N3CCC(COC(C)=O)C3)c(C=C(C)C(=O)O)c2)cc1 (configuration not stated)
148 °C	CCOC(=O)NC(=O)N(O)Cc1c(C)n(C(=O)c2ccc(Cl)cc2)c2ccc(OC)cc12
124 °C	Cc1cc2cnnc(OCc3ccccc3)c2n1Cc1ccccc1
148 to 149 °C	COc1cc(OC)nc(Oc2ccc3[nH]c(C)c(C=O)c3c2C(=O)OCc2ccccc2)n1
199 to 201 °C	CC(C)(C)NCC(O)COc1ccccc1C#Cc1ccc(C(N)=O)cc1 (configuration not stated)
181 to 182 °C	COc1ccc(Cn2cnc3c(Cl)nc([N+](=O)[O-])nc32)cc1
136 to 140 °C	COc1ccc(C(=O)Cn2c(-n3ccc(N)n3)nc3ccccc32)cc1
219 to 220 °C	NC(=O)c1cccc(-n2c(=O)n(Cc3cccnc3)c(=O)c3cccnc32)c1
252 to 253 °C	Cc1c(Cc2ccccc2)c(=O)n(Cc2ccccc2)c2cc(OCC(N)=O)cc(OCC(N)=O)c12
204 to 206 °C	O=S(=O)(c1ccccc1)n1c2ccc(Br)cc2c2ccc(Cl)nc21
139 to 141 °C	Cc1cc(OCCN(C)C)ccc1NC(=O)c1ccc(N2CCNCC2)cc1
86 to 87 °C	Cc1ccc(C(=O)N2CCC(c3ccccc3)=N2)cn1
185 to 187 °C	COc1ccc(C(=O)Nc2ccccc2)cc1NCc1ccc2c(c1)OCO2
204 to 205 °C	C[C@@H]1CN(c2ccc(N/C=C3\C(=O)NC(=O)c4ccc(-c5ccoc5)cc43)cc2)C[C@H](C)N1C
114 to 124 °C	O=C(c1nnc(-c2ccccc2)o1)N1CC(Oc2ccc(CN3CC4(COC4)C3)c(Cl)c2)C1
134 °C	Cc1cc(Cl)ccc1-c1nc(=O)c2ccccc2s1
153 to 154 °C	CCc1nn2c(N3CCN(C)CC3)cc(OCCO)nc2c1S(=O)(=O)c1ccccc1
